From DBAASP come the findings set out here.

Structures are written as SMILES. ≈ marks a conversion by molar mass, not a printed value. Where “and” joins values, the source holds several entries; their conditions need not be identical. Identical values can stand only once. Bounds are passed on as bounds.

Some test systems named below: Candida albicans; Escherichia coli; Staphylococcus aureus; Bacillus subtilis; Pseudomonas aeruginosa.
Common to all, as to test: ≥ marks a high value that may be exact or a test limit, other limits are often not marked, values filed in µg/mL are converted to µM
Assay [1] concerns Staphylococcus epidermidis.
Assay [2] has as its system Enterococcus faecalis ATCC 29212.
Assay [3] deals with Escherichia coli ATCC 25922.
For assay [4], the system named is Candida albicans ATCC 90028.
Assay [5] has as its system Pseudomonas aeruginosa ATCC 27853.
Assay [6] deals with Staphylococcus aureus ATCC 29213.
For assay [7], the system named is Salmonella enterica subsp. enterica serovar Typhimurium ATCC 14028.
Assay [8] concerns Pseudomonas aeruginosa PAO1.

The term MIC denotes the smallest concentration in the dilution series that meets the test's criterion for growth inhibition. A high value points to a less susceptible organism.

In turn, `CC[C@H](C)[C@H](NC(=O)[C@H](CO)NC(=O)[C@@H](NC(=O)[C@H](CCCCN)NC(=O)[C@H](Cc1ccccc1)NC(=O)[C@@H]1CCCN1C(=O)[C@@H](N)CCC(=O)O)[C@@H](C)CC)C(=O)N[C@@H](Cc1cnc[nH]1)C(=O)N[C@@H](CC(C)C)C(=O)NCC(=O)NCC(=O)N[C@@H](Cc1ccc(O)cc1)C(N)=O` [EPFKISIHLGGY] showed a minimum inhibitory concentration (MIC) in assay [1] of at least 220 µM.
Consider `CSCC[C@H](NC(=O)[C@H](CCCN=C(N)N)NC(=O)[C@H](Cc1c[nH]c2ccccc12)NC(=O)[C@H](CCC(N)=O)NC(=O)[C@H](Cc1c[nH]c2ccccc12)NC(=O)[C@H](CC(C)C)NC(=O)[C@H](CC(C)C)NC(=O)[C@H](C)NC(=O)[C@H](CCCCN)NC(=O)[C@@H](N)Cc1ccccc1)C(=O)O` [FKALLWQWRM], for which the minimal inhibitory concentration (MIC) in assay [2] and in assay [3] was 145 µM (≈ 200 µg/mL) throughout.
`CSCC[C@H](NC(=O)[C@H](CCCN=C(N)N)NC(=O)[C@H](Cc1c[nH]c2ccccc12)NC(=O)[C@H](CCC(N)=O)NC(=O)[C@H](Cc1c[nH]c2ccccc12)NC(=O)[C@H](CC(C)C)NC(=O)[C@H](CCCN=C(N)N)NC(=O)[C@H](C)NC(=O)[C@H](CCCCN)NC(=O)[C@@H](N)Cc1ccccc1)C(=O)O` [FKARLWQWRM]: the figures for the minimal inhibitory concentration (MIC) in assay [2] and in assay [3] were 141 µM (≈ 200 µg/mL) and 70.4 µM (≈ 100 µg/mL), respectively.
In the case of `CC[C@H](C)[C@H](NC(=O)[C@H](CC(=O)O)NC(=O)[C@H](CC(C)C)NC(=O)[C@H](Cc1ccccc1)NC(=O)CN)C(=O)N[C@H](C(=O)N[C@@H](CCCCN)C(=O)NCC(=O)N[C@H](C(=O)NCC(=O)N[C@@H](CCCCN)C(=O)N[C@H](C(=O)N[C@@H](C)C(=O)N[C@@H](CC(C)C)C(=O)NCC(=O)N[C@@H](C)C(=O)N[C@H](C(=O)N[C@@H](CO)C(=O)N[C@@H](CCCCN)C(=O)N[C@@H](CC(C)C)C(=O)N[C@@H](Cc1ccccc1)C(N)=O)C(C)C)C(C)C)C(C)C)C(C)C` [GFLDIVKGVGKVALGAVSKLF], the minimal inhibitory concentration (MIC) is 3.78 µM (≈ 8 µg/mL) with Candida albicans, 15.1 µM (≈ 32 µg/mL) in the assay with Escherichia coli and 3.78 µM (≈ 8 µg/mL) against Staphylococcus aureus.
Turning to `CC[C@H](C)[C@H](N)C(=O)N[C@@H](CC(=O)O)C(=O)N[C@@H](Cc1c[nH]c2ccccc12)C(=O)N[C@@H](CCCCN)C(=O)N[C@@H](CCCCN)C(=O)N[C@H](C(=O)N[C@@H](Cc1ccccc1)C(=O)N[C@@H](CCC(=O)O)C(=O)N[C@@H](CCCCN)C(=O)N[C@H](C(=O)N[C@@H](CCCCN)C(=O)N[C@@H](CC(N)=O)C(=O)N[C@@H](CC(C)C)C(=O)N[C@H](C(N)=O)C(C)C)C(C)C)[C@@H](C)CC` [IDWKKIFEKVKNLV], the minimum inhibitory concentration (MIC) against Bacillus subtilis turned out to be 8.5 µM (≈ 15 µg/mL); in the assay on Escherichia coli, 13 µM (≈ 22.9 µg/mL).
For `CC[C@H](C)[C@H](N)C(=O)N[C@@H](CC(N)=O)C(=O)N[C@@H](Cc1c[nH]c2ccccc12)C(=O)N[C@@H](CCCCN)C(=O)N[C@@H](CCCCN)C(=O)N[C@H](C(=O)N[C@@H](C)C(=O)N[C@@H](CO)C(=O)N[C@H](C(=O)NCC(=O)N[C@@H](CCCCN)C(=O)N[C@@H](CCC(=O)O)C(=O)N[C@H](C(=O)N[C@@H](CC(C)C)C(=O)N[C@@H](CCCCN)C(=O)N[C@@H](C)C(=O)N[C@H](C(N)=O)[C@@H](C)CC)C(C)C)[C@@H](C)CC)[C@@H](C)CC` [INWKKIASIGKEVLKAI] the same measures were 27.2 µM (≈ 52 µg/mL) and 5.5 µM (≈ 10.5 µg/mL).
On the same counts, the results for `CC[C@H](C)[C@H](N)C(=O)N[C@@H](CC(N)=O)C(=O)N[C@@H](Cc1c[nH]c2ccccc12)C(=O)N[C@@H](CCCCN)C(=O)N[C@@H](CCCCN)C(=O)N[C@H](C(=O)N[C@@H](C)C(=O)N[C@@H](CO)C(=O)N[C@H](C(=O)NCC(=O)N[C@@H](CCCCN)C(=O)N[C@@H](CCC(=O)O)C(=O)N[C@H](C(=O)N[C@@H](CC(C)C)C(N)=O)C(C)C)[C@@H](C)CC)[C@@H](C)CC` [INWKKIASIGKEVL] are at least 100 µM and 100 µM (≈ 160 µg/mL).
For the molecule `CC(C)C[C@H](NC(=O)[C@H](C)NC(=O)[C@@H](N)CCCCN)C(=O)N[C@@H](C)C(=O)N[C@@H](C)C(=O)N[C@@H](CC(C)C)C(=O)N[C@@H](CC(C)C)C(=O)N[C@@H](CCCCN)C(=O)N[C@@H](CCCCN)C(=O)N[C@@H](Cc1c[nH]c2ccccc12)C(=O)N[C@@H](C)C(=O)N[C@@H](CCCCN)C(=O)N[C@@H](CC(C)C)C(=O)N[C@@H](CC(C)C)C(=O)N[C@@H](C)C(=O)N[C@@H](C)C(=O)N[C@@H](CC(C)C)C(=O)N[C@@H](CCCCN)C(N)=O` [KALAALLKKWAKLLAALK], the MIC with Escherichia coli was determined as 4.1 µM (≈ 8 µg/mL); against Pseudomonas aeruginosa it was 5.8 µM (≈ 11.3 µg/mL); in the assay with Staphylococcus aureus it was 3 µM (≈ 5.85 µg/mL).
On the same counts, the results for `CC(C)C[C@H](NC(=O)[C@H](C)NC(=O)[C@H](CCCCN)NC(=O)[C@H](CC(C)C)NC(=O)[C@H](CC(C)C)NC(=O)[C@H](Cc1c[nH]c2ccccc12)NC(=O)[C@H](CCCCN)NC(=O)[C@H](CC(C)C)NC(=O)[C@H](C)NC(=O)[C@H](C)NC(=O)[C@H](CCCCN)NC(=O)[C@H](C)NC(=O)[C@H](CC(C)C)NC(=O)[C@H](CC(C)C)NC(=O)[C@@H](N)CCCCN)C(=O)N[C@@H](CCCCN)C(=O)N[C@@H](C)C(=O)N[C@@H](C)C(N)=O` [KLLAKAALKWLLKALKAA] are 6.2 µM (≈ 12.1 µg/mL), 12.4 µM (≈ 24.2 µg/mL) and 1.6 µM (≈ 3.12 µg/mL).
As for `CC[C@H](C)[C@H](NC(=O)[C@H](CCCN=C(N)N)NC(=O)[C@H](C)NC(=O)[C@@H](NC(=O)[C@@H](NC(=O)[C@H](CCCN=C(N)N)NC(=O)[C@@H](N)CCCCN)[C@@H](C)CC)C(C)C)C(=O)N[C@@H](CCCCN)C(=O)N[C@@H](CC(=O)O)C(=O)N[C@@H](Cc1ccccc1)C(=O)N[C@@H](CC(C)C)C(=O)N[C@@H](CCCN=C(N)N)C(=O)O` [KRIVARIKDFLR], the MIC in [4] stood at 20 µM (≈ 30.3 µg/mL); in assay [3], 5 µM (≈ 7.57 µg/mL); in [5], 5 µM (≈ 7.57 µg/mL); in [6], 20 µM (≈ 30.3 µg/mL).
Take `CC[C@H](C)[C@H](NC(=O)[C@H](Cc1ccccc1)NC(=O)[C@H](CO)NC(=O)[C@H](CCCCN)NC(=O)[C@H](Cc1c[nH]c2ccccc12)NC(=O)[C@@H](N)CCCCN)C(=O)N[C@@H](CCCCN)C(=O)N[C@@H](CCCCN)C(=O)N[C@@H](CC(C)C)C(=O)N[C@H](C(=O)N[C@@H](CO)C(=O)N[C@@H](CCCCN)C(=O)N[C@@H](Cc1ccccc1)C(=O)N[C@@H](CC(C)C)C(=O)N[C@@H](Cc1cnc[nH]1)C(=O)N[C@@H](CC(C)C)C(=O)N[C@@H](C)C(=O)N[C@@H](CCCCN)C(=O)N[C@@H](CCCCN)C(=O)N[C@@H](Cc1ccccc1)C(N)=O)[C@@H](C)O` [KWKSFIKKLTSKFLHLAKKF]: the MIC against Pseudomonas aeruginosa stood at 5.04 µM (≈ 12.5 µg/mL).
For the molecule `CC[C@H](C)[C@H](NC(=O)[C@H](CCCN=C(N)N)NC(=O)[C@H](C)NC(=O)[C@H](CC(N)=O)NC(=O)[C@H](CCCCN)NC(=O)[C@@H](N)CC(C)C)C(=O)N[C@H](C(=O)NCC(=O)N[C@@H](CCC(=O)O)C(=O)N[C@@H](CC(C)C)C(=O)N[C@H](C(=O)NCC(=O)N[C@@H](Cc1ccccc1)C(=O)N[C@@H](CCCN=C(N)N)C(=O)N1CCC[C@H]1C(=O)N[C@H](C(=O)N[C@@H](CCCN=C(N)N)C(=O)N1CCC[C@H]1C(=O)N[C@@H](CCC(N)=O)C(=O)N[C@H](C(=O)N[C@@H](CCCN=C(N)N)C(=O)N[C@@H](CC(C)C)C(=O)N[C@@H](CCC(=O)O)C(=O)O)C(C)C)C(C)C)[C@@H](C)O)C(C)C` [LKNARIVGELTGFRPVRPQVRLE], the minimum inhibitory concentration (MIC) stood at 12.5 µM (≈ 33.1 µg/mL) in assay [2], 12.5 µM (≈ 33.1 µg/mL) in [3] and 25 µM (≈ 66.2 µg/mL) in [7].
For `CC(C)C[C@H](NC(=O)[C@H](CCCN=C(N)N)NC(=O)[C@@H](N)CCCN=C(N)N)C(=O)N[C@@H](CCCN=C(N)N)C(=O)N1CCC[C@H]1C(=O)N[C@@H](CCCN=C(N)N)C(=O)N[C@@H](CCCN=C(N)N)C(=O)N1CCC[C@H]1C(=O)N[C@@H](CCCN=C(N)N)C(=O)N[C@@H](CC(C)C)C(=O)N1CCC[C@H]1C(=O)N[C@@H](CCCN=C(N)N)C(=O)N1CCC[C@H]1C(=O)N[C@@H](CCCN=C(N)N)C(=O)N1CCC[C@H]1C(=O)N[C@@H](CCCN=C(N)N)C(=O)O` [RRLRPRRPRLPRPRPR], the minimal inhibitory concentration (MIC) was over 32 µM in [2]; 16 µM and 32 µM in [8]; over 32 µM in assay [6].
Turning to `CC[C@H](C)[C@H](NC(=O)[C@H](CCCCN)NC(=O)[C@H](CS)NC(=O)[C@H](C)NC(=O)[C@@H](NC(=O)[C@H](Cc1ccccc1)NC(=O)CNC(=O)[C@H](CC(C)C)NC(=O)CNC(=O)[C@@H](NC(=O)[C@H](CCCCN)NC(=O)CNC(=O)[C@H](CC(C)C)NC(=O)[C@H](CC(N)=O)NC(=O)[C@H](CCCCN)NC(=O)[C@H](CC(C)C)NC(=O)[C@@H](NC(=O)[C@H](CCCCN)NC(=O)[C@H](CC(C)C)NC(=O)[C@H](CCSC)NC(=O)[C@@H](N)CO)C(C)C)C(C)C)C(C)C)C(=O)N[C@@H](CC(N)=O)C(=O)N[C@@H](CCCCN)C(=O)N[C@@H](CCC(N)=O)C(=O)N[C@@H](CS)C(=O)O` [SMLKVLKNLGKVGLGFVACKINKQC], the MIC was determined as 40 µM (≈ 108 µg/mL) in the assay on Candida albicans, 10 µM (≈ 26.9 µg/mL) against Escherichia coli and 20 µM (≈ 53.8 µg/mL) in the assay on Staphylococcus aureus.
As for `CSCC[C@H](NC(=O)[C@H](CCSC)NC(=O)[C@H](CCCCN)NC(=O)[C@H](CCCCN)NC(=O)CNC(=O)[C@H](CC(C)C)NC(=O)[C@H](CCCCN)NC(=O)[C@H](CC(C)C)NC(=O)[C@H](Cc1c[nH]c2ccccc12)NC(=O)[C@H](CC(N)=O)NC(=O)[C@@H](N)CO)C(=O)N[C@@H](CO)C(=O)N[C@@H](C)C(=O)N[C@@H](CC(C)C)C(N)=O` [SNWLKLGKKMMSAL], the MIC is at least 40 µM with Bacillus subtilis and 100 µM (≈ 161 µg/mL) in the assay on Escherichia coli.
